Measurements as given in patent US20090270394A1, “CYCLYLAMINE DERIVATIVES AS CALCIUM CHANNEL BLOCKERS” (priority 2008, published 2009).

Target: T1, Human Cav2.2 channels (Homo sapiens, UniProt Q00975)
T1 construct: expressed in transfected cells
Test: Fluorescent assay for Cav2.2 channels using potassium depolarization to initiate channel opening
Assay type: cell-based
Conditions: for inhibition at 10 µM: 10 μM compound, read-out: Cav 2.2 Activity % Inh at 10 μM; for inhibition at 30 µM: 30 μM compound, read-out: Cav 2.2 Activity % Inh at 30 μM; for IC50: 30 mM K (block of open and inactivated channels), read-out: Cav 2.2 Activity IC50 at 30 mM K
Source text: Human Cav2.2 channels were stably expressed in HEK293 cells along with alpha2-delta and beta subunits of voltage-gated calcium channels. An inwardly rectifying potassium channel (Kir2.3) was also expressed in these cells to allow more precise control of the cell membrane potential by extracellular potassium concentration. At low bath potassium concentration, the membrane potential is relatively negative, and is depolarized as the bath potassium concentration is raised. In this way, the bath potassium concentration can be used to regulate the voltage-dependent conformations of the channels. […] After the incubation period, Cav2.2 channel opening is triggered by addition of higher concentration of potassium (70 mM final concentration) to further depolarize the cell. The degree of state-dependent block can be estimated from the inhibitory potency of compounds after incubation in different potassium concentrations.
Calcium influx through Cav2.2 channels is determined using a calcium sensitive fluorescent dye in combination with a fluorescent plate reader. Fluorescent changes were measured with either a VIPR (Aurora Instruments) or FLIPR (Molecular Devices) plate reader.
• 1. Seed cells in Poly-D-Lysine Coated 96 or 384-well plate and keep in a 37° C.-10% CO2 incubator overnight • 2. […] Incubate in the dark at 25° C. for 60-70 min • 5. Remove dye, wash cells with 0.1 mL (96-well plate) or 0.06 mL (384-well plate) of 4, 12, 25, or 30 mM Potassium Pre-polarization Buffer (PPB) • 6. […] Incubate in the dark at 25° C. for 30 min • 8. Read cell plate on VIPR instrument, Excitation=480 nm, Emission=535 nm • 9. With VIPR continuously reading, add 0.1 mL (96-well plate) or 0.03 mL (384-well plate) of Depolarization Buffer (DB), which is 2× the final assay concentration, to the cell plate.

T1 sequence (Q00975 whole entry): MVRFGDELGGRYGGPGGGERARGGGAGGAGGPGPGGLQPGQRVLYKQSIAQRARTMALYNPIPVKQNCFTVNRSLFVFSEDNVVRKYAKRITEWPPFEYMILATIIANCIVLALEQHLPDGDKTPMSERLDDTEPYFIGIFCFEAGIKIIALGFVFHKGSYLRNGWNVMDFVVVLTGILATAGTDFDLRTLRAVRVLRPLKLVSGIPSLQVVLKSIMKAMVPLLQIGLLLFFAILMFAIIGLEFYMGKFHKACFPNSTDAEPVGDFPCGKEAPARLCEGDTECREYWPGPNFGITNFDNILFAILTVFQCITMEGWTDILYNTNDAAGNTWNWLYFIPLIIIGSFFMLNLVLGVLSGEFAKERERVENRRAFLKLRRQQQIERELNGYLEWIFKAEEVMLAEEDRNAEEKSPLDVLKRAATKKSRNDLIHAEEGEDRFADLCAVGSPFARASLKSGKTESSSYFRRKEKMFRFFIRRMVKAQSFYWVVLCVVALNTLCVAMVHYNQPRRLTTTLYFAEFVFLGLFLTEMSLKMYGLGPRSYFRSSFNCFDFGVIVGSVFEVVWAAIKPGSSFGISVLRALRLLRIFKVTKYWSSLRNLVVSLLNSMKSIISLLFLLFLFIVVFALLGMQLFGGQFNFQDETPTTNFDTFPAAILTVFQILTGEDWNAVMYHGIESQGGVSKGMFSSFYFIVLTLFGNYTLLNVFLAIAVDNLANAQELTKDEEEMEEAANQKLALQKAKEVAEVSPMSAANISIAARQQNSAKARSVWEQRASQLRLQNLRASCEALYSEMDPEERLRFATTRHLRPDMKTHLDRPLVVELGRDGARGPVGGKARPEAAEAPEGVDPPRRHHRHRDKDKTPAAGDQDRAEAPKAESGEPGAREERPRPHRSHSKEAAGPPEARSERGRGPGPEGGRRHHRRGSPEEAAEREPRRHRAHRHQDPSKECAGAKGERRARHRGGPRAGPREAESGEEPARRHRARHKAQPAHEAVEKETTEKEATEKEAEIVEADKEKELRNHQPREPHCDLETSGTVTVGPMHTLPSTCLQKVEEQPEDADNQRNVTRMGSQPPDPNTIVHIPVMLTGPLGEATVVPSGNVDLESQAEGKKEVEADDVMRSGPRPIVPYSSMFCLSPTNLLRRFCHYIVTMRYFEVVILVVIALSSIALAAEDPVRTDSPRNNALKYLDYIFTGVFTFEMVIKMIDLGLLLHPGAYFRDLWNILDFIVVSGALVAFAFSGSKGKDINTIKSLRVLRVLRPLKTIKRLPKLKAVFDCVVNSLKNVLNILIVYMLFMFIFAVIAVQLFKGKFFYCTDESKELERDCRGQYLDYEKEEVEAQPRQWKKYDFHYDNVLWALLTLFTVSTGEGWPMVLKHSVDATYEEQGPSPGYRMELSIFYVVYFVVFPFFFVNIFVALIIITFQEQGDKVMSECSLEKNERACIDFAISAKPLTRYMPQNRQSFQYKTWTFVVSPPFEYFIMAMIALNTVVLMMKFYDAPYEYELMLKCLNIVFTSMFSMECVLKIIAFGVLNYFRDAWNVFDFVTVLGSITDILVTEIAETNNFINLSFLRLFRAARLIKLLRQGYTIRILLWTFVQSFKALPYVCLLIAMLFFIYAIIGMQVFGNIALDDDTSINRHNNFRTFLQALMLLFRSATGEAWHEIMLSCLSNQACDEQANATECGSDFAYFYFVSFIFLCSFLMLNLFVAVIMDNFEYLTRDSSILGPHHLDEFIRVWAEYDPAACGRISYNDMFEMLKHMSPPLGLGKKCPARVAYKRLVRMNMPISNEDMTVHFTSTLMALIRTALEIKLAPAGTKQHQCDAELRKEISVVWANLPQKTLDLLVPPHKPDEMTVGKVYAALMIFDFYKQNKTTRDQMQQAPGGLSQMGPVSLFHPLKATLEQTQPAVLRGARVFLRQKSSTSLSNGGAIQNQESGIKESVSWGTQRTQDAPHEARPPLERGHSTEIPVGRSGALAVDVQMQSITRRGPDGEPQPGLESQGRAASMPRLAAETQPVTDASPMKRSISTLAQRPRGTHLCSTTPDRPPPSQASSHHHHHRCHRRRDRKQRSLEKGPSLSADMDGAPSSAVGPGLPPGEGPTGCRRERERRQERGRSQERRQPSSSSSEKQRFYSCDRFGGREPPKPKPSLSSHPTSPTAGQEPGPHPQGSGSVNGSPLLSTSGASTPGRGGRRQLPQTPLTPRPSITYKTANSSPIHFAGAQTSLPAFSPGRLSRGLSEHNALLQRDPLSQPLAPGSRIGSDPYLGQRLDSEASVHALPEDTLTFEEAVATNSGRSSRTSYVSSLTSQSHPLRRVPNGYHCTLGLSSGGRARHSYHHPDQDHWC
T1 sequence (P54289 25-1103 partner): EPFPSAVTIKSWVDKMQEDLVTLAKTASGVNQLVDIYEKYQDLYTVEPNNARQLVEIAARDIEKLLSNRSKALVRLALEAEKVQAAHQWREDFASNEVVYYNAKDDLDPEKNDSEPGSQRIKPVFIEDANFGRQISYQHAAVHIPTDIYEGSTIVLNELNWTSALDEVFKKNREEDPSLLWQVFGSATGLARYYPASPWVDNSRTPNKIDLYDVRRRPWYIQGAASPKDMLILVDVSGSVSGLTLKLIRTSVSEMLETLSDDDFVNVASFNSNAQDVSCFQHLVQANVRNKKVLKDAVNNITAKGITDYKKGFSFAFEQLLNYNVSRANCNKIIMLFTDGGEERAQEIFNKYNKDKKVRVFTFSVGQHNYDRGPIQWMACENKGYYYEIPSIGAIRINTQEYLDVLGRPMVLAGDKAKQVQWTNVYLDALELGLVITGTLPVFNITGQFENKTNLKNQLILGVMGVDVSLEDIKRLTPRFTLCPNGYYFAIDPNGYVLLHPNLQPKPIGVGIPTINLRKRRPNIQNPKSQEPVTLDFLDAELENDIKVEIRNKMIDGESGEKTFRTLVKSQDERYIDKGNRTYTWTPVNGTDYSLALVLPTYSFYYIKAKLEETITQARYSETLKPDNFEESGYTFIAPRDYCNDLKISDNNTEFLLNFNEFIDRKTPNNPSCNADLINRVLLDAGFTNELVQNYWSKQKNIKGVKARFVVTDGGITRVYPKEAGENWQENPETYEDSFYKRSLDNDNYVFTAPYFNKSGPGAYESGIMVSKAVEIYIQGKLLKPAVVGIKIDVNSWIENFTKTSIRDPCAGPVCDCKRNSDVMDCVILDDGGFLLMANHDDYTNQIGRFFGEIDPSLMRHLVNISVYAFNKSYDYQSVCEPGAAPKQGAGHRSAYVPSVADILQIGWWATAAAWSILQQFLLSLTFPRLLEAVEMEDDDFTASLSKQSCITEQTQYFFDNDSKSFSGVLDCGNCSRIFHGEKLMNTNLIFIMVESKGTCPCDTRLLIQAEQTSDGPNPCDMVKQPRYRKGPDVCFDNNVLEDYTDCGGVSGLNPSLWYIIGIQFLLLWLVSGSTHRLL
T1 sequence (P54284 whole entry partner): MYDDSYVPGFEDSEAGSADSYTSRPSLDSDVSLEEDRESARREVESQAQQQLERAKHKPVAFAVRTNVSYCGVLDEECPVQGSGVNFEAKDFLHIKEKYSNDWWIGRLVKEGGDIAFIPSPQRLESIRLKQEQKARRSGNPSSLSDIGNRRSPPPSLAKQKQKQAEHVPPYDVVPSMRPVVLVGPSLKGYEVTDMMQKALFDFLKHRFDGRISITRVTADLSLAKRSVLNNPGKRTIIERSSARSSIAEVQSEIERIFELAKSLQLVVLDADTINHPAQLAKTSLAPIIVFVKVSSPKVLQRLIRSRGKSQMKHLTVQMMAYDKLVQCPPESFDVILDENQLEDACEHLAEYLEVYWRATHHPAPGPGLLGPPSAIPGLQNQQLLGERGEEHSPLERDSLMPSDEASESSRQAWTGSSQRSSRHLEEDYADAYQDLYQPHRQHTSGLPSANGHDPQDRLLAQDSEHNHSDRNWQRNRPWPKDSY

Row | Structure (SMILES) | inhibition at 10 µM [%] | inhibition at 30 µM [%] | IC50 [nM]
1 | COc1c(C(C)(C)C)cc(CNC2(C(=O)NCc3cccc(C(F)(F)F)c3)CCCCC2)cc1C(C)(C)C [Compound 71, 1-(3,5-di-tert-butyl-4-methoxybenzylamino)-N-(3-(trifluoromethyl)benzyl)cyclohexanecarboxamide] | 77.3 | 81.1 | 477
2 | COc1ccc(C(=O)NC2(C(=O)NCc3cc(C(C)(C)C)c(OC)c(C(C)(C)C)c3)CCCCC2)cc1 [Compound 74, N-(1-(3,5-di-tert-butyl-4-methoxybenzylcarbamoyl)cyclohexyl)-4-methoxybenzamide] | 98.9 | 106 | 55.8
3 | CC(C)(C)c1cc(CNC2(C(=O)NCc3cccc(C(F)(F)F)c3)CCCCC2)cc(C(C)(C)C)c1 [Compound 60, 1-(3,5-di-tert-butylbenzylamino)-N-(3-(trifluoromethyl)benzyl)cyclohexanecarboxamide] | 74.8 | 85.8 | –
4 | CC(C)(C#N)c1cc(C(=O)NC2(C(=O)NCc3ccccc3)CCCCC2)cc(C(C)(C)C#N)c1 [Compound 41, N-(1-(benzylcarbamoyl)cyclohexyl)-3,5-bis(2-cyanopropan-2-yl)benzamide] | 76 | 73.3 | 985
5 | COc1c(C(C)(C)C)cc(CNC(=O)C2(NC(=O)c3cccc(C(F)(F)F)c3)CCCCC2)cc1C(C)(C)C [Compound 73, N-(1-(3,5-di-tert-butyl-4-methoxybenzylcarbamoyl)cyclohexyl)-3-(trifluoromethyl)benzamide] | 95.2 | 97.7 | 124
6 | CC(C)(C)c1cc(C(=O)NC2(C(=O)NCc3ccc(CN4CCOCC4)cc3)CCOCC2)cc(C(C)(C)C)n1 [Compound 24, 2,6-di-tert-butyl-N-(4-(4-(morpholinomethyl)benzylcarbamoyl)tetrahydro-2H-pyran-4-yl)isonicotinamide] | 79.2 | – | 767
7 | COc1c(C(C)(C)C)cc(C(=O)NC2(C(=O)NCc3cnc(C)cn3)CCN(C(=O)OC(C)(C)C)CC2)cc1C(C)(C)C [Compound 22, tert-butyl 4-(3,5-di-tert-butyl-4-methoxybenzamido)-4-((5-methylpyrazin-2-yl)methylcarbamoyl)piperidine-1-carboxylate] | 95.1 | – | 402
8 | COc1ccc(C(=O)NC2(C(=O)NCc3cccc(C(F)(F)F)c3)CCCCC2)cc1C(C)(C)C#N [Compound 118, 3-(2-cyanopropan-2-yl)-4-methoxy-N-(1-(3-(trifluoromethyl)benzylcarbamoyl)cyclohexyl)benzamide] | 75.4 | 77.6 | 388
9 | N#CCc1cc(CC#N)cc(C(=O)NC2(C(=O)NCc3cccc(C(F)(F)F)c3)CCCCC2)c1 [Compound 61, 3,5-bis(cyanomethyl)-N-(1-(3-(trifluoromethyl)benzylcarbamoyl)cyclohexyl)benzamide] | 18.7 | 56.4 | –
10 | COc1ccc(CNC(=O)C2(NC(=O)c3cc(C(C)(C)C)nc(C(C)(C)C)c3)CCOCC2)cc1 [Compound 113, 2,6-di-tert-butyl-N-(4-(4-methoxybenzylcarbamoyl)tetrahydro-2H-pyran-4-yl)isonicotinamide] | 79 | 93 | 59.4
11 | CC(C)(C)c1cc(C(=O)NC2(C(=O)Nc3ccncc3)CCCCC2)cc(C(C)(C)C)c1 [Compound 75, 3,5-di-tert-butyl-N-(1-(pyridin-4-ylcarbamoyl)cyclohexyl)benzamide] | 93.6 | 101 | 545
12 | CC(C)(C)c1cc(C(=O)NC2(C(=O)NCc3ccccn3)CCCCC2)cc(C(C)(C)C)c1 [Compound 47, 3,5-di-tert-butyl-N-(1-(pyridin-2-ylmethylcarbamoyl)cyclohexyl)benzamide] | 93.7 | 95.3 | 35.6
